Assay results taken from PubChem BioAssay AID2060906 (Molecular Pharmacology Branch, DTP, NCI, 2025).

Test system: 485176-168-R4-J1-PDC complex spheroid growth
Assay: Anticancer human tumor 485176-168-R4-J1-PDC patient-derived pancreatic adenocarcinoma cell line growth inhibition [RAS]
Conditions: for IC50: curve of first compound; for viability, T/C: stronger effect = lower value; active = viability on the fitted dose curve at most 10% of control; inactive = the rest
In short: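 Tumour cells grown as complex spheroids with HUVEC endothelial cells and mesenchymal stem cells, treated with RAS pathway inhibitor combinations. Each agent spans half-log steps from near clinical Cmax, or 10 microM where Cmax is unknown.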

[1] = second compound 0.0316 µM, first compound 0.00316 µM
[2] = second compound 0.0316 µM, first compound 0.01 µM
[3] = second compound 0.0316 µM, first compound 0.0316 µM
[4] = second compound 0.0316 µM, first compound 0.1 µM
[5] = second compound 0.0316 µM, first compound 0.316 µM
[6] = second compound 0.0316 µM, first compound 1 µM
[7] = second compound 0.1 µM, first compound 0.00316 µM
[8] = second compound 0.1 µM, first compound 0.01 µM
[9] = second compound 0.1 µM, first compound 0.0316 µM
[10] = second compound 0.1 µM, first compound 0.1 µM
[11] = second compound 0.1 µM, first compound 0.316 µM
[12] = second compound 0.1 µM, first compound 1 µM
[13] = second compound 0.316 µM, first compound 0.00316 µM
[14] = second compound 0.316 µM, first compound 0.01 µM
[15] = second compound 0.316 µM, first compound 0.0316 µM
[16] = second compound 0.316 µM, first compound 0.1 µM
[17] = second compound 0.316 µM, first compound 0.316 µM
[18] = second compound 0.316 µM, first compound 1 µM
[19] = second compound 1 µM, first compound 0.00316 µM
[20] = second compound 1 µM, first compound 0.01 µM
[21] = second compound 1 µM, first compound 0.0316 µM
[22] = second compound 1 µM, first compound 0.1 µM
[23] = second compound 1 µM, first compound 0.316 µM
[24] = second compound 1 µM, first compound 1 µM
[25] = second compound 0.00316 µM, first compound 0.00316 µM
[26] = second compound 0.00316 µM, first compound 0.01 µM
[27] = second compound 0.00316 µM, first compound 0.0316 µM
[28] = second compound 0.00316 µM, first compound 0.1 µM
[29] = second compound 0.00316 µM, first compound 0.316 µM
[30] = second compound 0.00316 µM, first compound 1 µM
[31] = second compound 0.01 µM, first compound 0.00316 µM
[32] = second compound 0.01 µM, first compound 0.01 µM
[33] = second compound 0.01 µM, first compound 0.0316 µM
[34] = second compound 0.01 µM, first compound 0.1 µM
[35] = second compound 0.01 µM, first compound 0.316 µM
[36] = second compound 0.01 µM, first compound 1 µM
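Also: spheroids exposed to compounds for seven days before readout.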
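For viability, T/C in this document: luminescence viability expressed relative to DMSO vehicle wells set as 100%.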

C=CC(=O)N1CCN(c2nc(OCC3CCCN3C)nc3c(F)c(-c4nc(N)cc(C)c4C(F)(F)F)c(Cl)cc23)C(C)C1 (stereo not drawn) + C#Cc1c(F)ccc2cc(O)cc(-c3ncc4c(N5CC6CCC(C5)N6)nc(OCC56CCCN5CC(F)C6)nc4c3F)c12
inactive: viability, T/C [1] 103% | viability, T/C [2] 88.9% | viability, T/C [3] 88.5% | viability, T/C [4] 105% | viability, T/C [5] 96.8% | viability, T/C [6] 103% | viability, T/C [7] 117% | viability, T/C [8] 109% | viability, T/C [9] 99.2% | viability, T/C [10] 102% | viability, T/C [11] 108% | viability, T/C [12] 103% | viability, T/C [13] 86.8% | viability, T/C [14] 93.6% | viability, T/C [15] 103% | viability, T/C [16] 103% | viability, T/C [17] 87.3% | viability, T/C [18] 89.9% | viability, T/C [19] 115% | viability, T/C [20] 83.1% | viability, T/C [21] 77.5% | viability, T/C [22] 101% | viability, T/C [23] 97.1% | viability, T/C [24] 86.1% | viability, T/C (second compound 3.16 µM, first compound 0.00316 µM) 115% | viability, T/C (second compound 3.16 µM, first compound 0.01 µM) 92.2% | viability, T/C (second compound 3.16 µM, first compound 0.0316 µM) 85.3% | viability, T/C (second compound 3.16 µM, first compound 0.1 µM) 104% | viability, T/C (second compound 3.16 µM, first compound 0.316 µM) 98.1% | viability, T/C (second compound 3.16 µM, first compound 1 µM) 70.3% | viability, T/C (second compound 10 µM, first compound 0.00316 µM) 94.1% | viability, T/C (second compound 10 µM, first compound 0.01 µM) 81.8% | viability, T/C (second compound 10 µM, first compound 0.0316 µM) 95.9% | viability, T/C (second compound 10 µM, first compound 0.1 µM) 94.6% | viability, T/C (second compound 10 µM, first compound 0.316 µM) 95.2% | viability, T/C (second compound 10 µM, first compound 1 µM) 94.8%
> 1000 nM: IC50 (second compound 0.0316 µM) | IC50 (second compound 0.1 µM) | IC50 (second compound 0.316 µM) | IC50 (second compound 1 µM) | IC50 (second compound 3.16 µM) | IC50 (second compound 10 µM)

CC1(C)CCC(Nc2ncc(C(F)(F)F)c(-c3c[nH]c4c(P(C)(C)=O)c(C#N)ccc34)n2)CN1 (stereo not drawn) + C#Cc1c(F)ccc2cc(O)cc(-c3ncc4c(N5CC6CCC(C5)N6)nc(OCC56CCCN5CC(F)C6)nc4c3F)c12
114 nM: IC50 (second compound 10 µM)
262 nM: IC50 (second compound 1 µM)
inactive: viability, T/C (second compound 0.0316 µM, first compound 0.000949 µM) 106% | viability, T/C (second compound 0.0316 µM, first compound 0.003 µM) 98.2% | viability, T/C (second compound 0.0316 µM, first compound 0.00949 µM) 83.8% | viability, T/C (second compound 0.0316 µM, first compound 0.03 µM) 59.8% | viability, T/C (second compound 0.0316 µM, first compound 0.0949 µM) 61.8% | viability, T/C (second compound 0.0316 µM, first compound 0.3 µM) 56.2% | viability, T/C (second compound 0.1 µM, first compound 0.000949 µM) 98.5% | viability, T/C (second compound 0.1 µM, first compound 0.003 µM) 114% | viability, T/C (second compound 0.1 µM, first compound 0.00949 µM) 79.1% | viability, T/C (second compound 0.1 µM, first compound 0.03 µM) 59.7% | viability, T/C (second compound 0.1 µM, first compound 0.0949 µM) 56.9% | viability, T/C (second compound 0.1 µM, first compound 0.3 µM) 50% | viability, T/C (second compound 0.316 µM, first compound 0.000949 µM) 106% | viability, T/C (second compound 0.316 µM, first compound 0.003 µM) 121% | viability, T/C (second compound 0.316 µM, first compound 0.00949 µM) 84.5% | viability, T/C (second compound 0.316 µM, first compound 0.03 µM) 55.8% | viability, T/C (second compound 0.316 µM, first compound 0.0949 µM) 53.1% | viability, T/C (second compound 0.316 µM, first compound 0.3 µM) 60.5% | viability, T/C (second compound 1 µM, first compound 0.000949 µM) 118% | viability, T/C (second compound 1 µM, first compound 0.003 µM) 96% | viability, T/C (second compound 1 µM, first compound 0.00949 µM) 80.5% | viability, T/C (second compound 1 µM, first compound 0.03 µM) 68.1% | viability, T/C (second compound 1 µM, first compound 0.0949 µM) 53.5% | viability, T/C (second compound 1 µM, first compound 0.3 µM) 50.4% | viability, T/C (second compound 3.16 µM, first compound 0.000949 µM) 107% | viability, T/C (second compound 3.16 µM, first compound 0.003 µM) 97.9% | viability, T/C (second compound 3.16 µM, first compound 0.00949 µM) 84.5% | viability, T/C (second compound 3.16 µM, first compound 0.03 µM) 63.8% | viability, T/C (second compound 3.16 µM, first compound 0.0949 µM) 58.3% | viability, T/C (second compound 3.16 µM, first compound 0.3 µM) 53% | viability, T/C (second compound 10 µM, first compound 0.000949 µM) 99.3% | viability, T/C (second compound 10 µM, first compound 0.003 µM) 89.3% | viability, T/C (second compound 10 µM, first compound 0.00949 µM) 81.2% | viability, T/C (second compound 10 µM, first compound 0.03 µM) 68.7% | viability, T/C (second compound 10 µM, first compound 0.0949 µM) 46.2% | viability, T/C (second compound 10 µM, first compound 0.3 µM) 46.4%
> 300 nM: IC50 (second compound 0.0316 µM) | IC50 (second compound 0.1 µM) | IC50 (second compound 0.316 µM) | IC50 (second compound 3.16 µM)

C=CC(=O)Nc1cc(Nc2nccc(-c3cn(C)c4ccccc34)n2)c(OC)cc1N(C)CCN(C)C + C=CC(=O)N1CCN(c2nc(OCC3CCCN3C)nc3c(F)c(-c4nc(N)cc(C)c4C(F)(F)F)c(Cl)cc23)C(C)C1
> 1000 nM: IC50 (second compound 0.00316 µM) | IC50 (second compound 0.01 µM) | IC50 (second compound 0.0316 µM) | IC50 (second compound 0.1 µM) | IC50 (second compound 0.316 µM) | IC50 (second compound 1 µM)
inactive: viability, T/C [25] 101% | viability, T/C [26] 111% | viability, T/C [27] 102% | viability, T/C [28] 100% | viability, T/C [29] 81.6% | viability, T/C [30] 75.6% | viability, T/C [31] 94.8% | viability, T/C [32] 102% | viability, T/C [33] 109% | viability, T/C [34] 104% | viability, T/C [35] 96.7% | viability, T/C [36] 67.8% | viability, T/C [1] 111% | viability, T/C [2] 122% | viability, T/C [3] 104% | viability, T/C [4] 99.7% | viability, T/C [5] 74.8% | viability, T/C [6] 73.9% | viability, T/C [7] 95.7% | viability, T/C [8] 94.2% | viability, T/C [9] 98.7% | viability, T/C [10] 104% | viability, T/C [11] 90.9% | viability, T/C [12] 52.5% | viability, T/C [13] 110% | viability, T/C [14] 102% | viability, T/C [15] 90.8% | viability, T/C [16] 101% | viability, T/C [17] 84.7% | viability, T/C [18] 66.9% | viability, T/C [19] 113% | viability, T/C [20] 99.6% | viability, T/C [21] 100% | viability, T/C [22] 81% | viability, T/C [23] 75.5% | viability, T/C [24] 57.9%

O=C(c1ccc(F)c(F)c1Nc1ccc(I)cc1F)N1CC(O)([C@@H]2CCCCN2)C1 + C=CC(=O)N1CCN(c2nc(OCC3CCCN3C)nc3c(F)c(-c4nc(N)cc(C)c4C(F)(F)F)c(Cl)cc23)C(C)C1
212 nM: IC50 (second compound 0.01 µM)
230 nM: IC50 (second compound 0.00316 µM)
195 nM: IC50 (second compound 0.0316 µM)
inactive: viability, T/C [25] 86% | viability, T/C [26] 90.4% | viability, T/C [27] 72% | viability, T/C [28] 61.1% | viability, T/C [29] 47.1% | viability, T/C [30] 33% | viability, T/C [31] 105% | viability, T/C [32] 80.9% | viability, T/C [33] 70.3% | viability, T/C [34] 61.9% | viability, T/C [35] 48.5% | viability, T/C [36] 30.9% | viability, T/C [1] 96.1% | viability, T/C [2] 90.7% | viability, T/C [3] 77% | viability, T/C [4] 55.5% | viability, T/C [5] 47.4% | viability, T/C [6] 35.9% | viability, T/C [7] 96.4% | viability, T/C [8] 82.5% | viability, T/C [9] 73.5% | viability, T/C [10] 69.2% | viability, T/C [11] 49.4% | viability, T/C [12] 34.4% | viability, T/C [13] 90.6% | viability, T/C [14] 86.2% | viability, T/C [15] 84.1% | viability, T/C [16] 52.6% | viability, T/C [17] 49.2% | viability, T/C [18] 37.1% | viability, T/C [19] 86.1% | viability, T/C [20] 72.9% | viability, T/C [21] 58% | viability, T/C [22] 70.8% | viability, T/C [23] 50.8% | viability, T/C [24] 36.6%
327 nM: IC50 (second compound 0.1 µM)
324 nM: IC50 (second compound 1 µM)
148 nM: IC50 (second compound 0.316 µM)
